The record followed here is patent US5968912A, “Methods for immunosuppressing” (Immune Modulation, Inc., priority 1997, dated 1999).

What all share (format): cell-based, human
Assay [1] relates to Protein Kinase-C-Mediated T-cell Proliferation (PBMC). The experiment in a line: PK-C-mediated T-cell proliferation (PMA + A23187). The conditions noted are these: PMA 1.25 ng/mL + A23187 0.25 μM; for Proliferation: 100 μM; for inhibition at 100 µM: Homo sapiens, T-cell. As to the method: Determination of the effect of HE-33 on PK-C-mediated signaling pathway
PBMC of a healthy volunteer were cultured in 96-well microtiter plates at 2×10^5 cells/well. […] Forskolin is an agent well known to increase intacellular cAMP levels by activating adenylate cyclase. Cultures were incubated for 3 days at 37° C. in a 5% CO2 incubator. Proliferative response was determined by incorporation of ^3 H-thymidine.. The results were expressed in CPM and % inhibition of proliferation (Table 7).

The test system of assay [2] is mononuclear leukocytes (Two-way MLR). The experiment in a line: Two-way mixed leukocyte reaction (MLR), 3H-thymidine incorporation. The settings on record: for inhibition at 0.01 µM / inhibition at 0.1 µM / inhibition at 1 µM / inhibition at 10 µM / inhibition at 100 µM: Homo sapiens, Leukocyte.
Another assay relates to IL-2. The experiment in a line: IL-2 production in PHA-stimulated PBMC cultures. Also on record: % Inhibition of IL-2 production: concentration or dose not given beside the values. As to the method:
(§1) Production of autocrine growth factors (IL-2, IL-4, IL-10 and Interferon-gamma) in PHA-stimulated human PBMC cultures
(§2) Culture supernatants were collected at the times indicated and frozen at -20° C. At the end of 96 hr., all supernatants were assayed by enzyme immunoassay for the presence of the cytokines: interleukin-2, -4, -10 and interferon (IFN)-gamma. Results were expressed in pg/mL concentration of cytokine and % inhibition of cytokine production.

A further assay deals with IL-10. The experiment in a line: IL-10 production in PHA-stimulated PBMC cultures. Also on record: % Inhibition of IL-10 production: concentration or dose not given beside the values. As to the method:
as §1, §2

The subject of a further assay is Interferon-gamma. The assay can be described thus: Interferon-gamma production in PHA-stimulated PBMC cultures. Also on record: % Inhibition of IFN-γ production: concentration or dose not given beside the values. As to the method: as §1, §2
The test system of another assay is IL-4. The assay can be described thus: IL-4 production in PHA-stimulated PBMC cultures. Also on record: % Inhibition of IL-4 production: concentration or dose not given beside the values. As to the method: as §1, §2

Each structure is given as a SMILES string.

As usually defined, the inhibition is the share of the control response that was lost under treatment.

As for `CCCCN(CCCC)c1ncnc2c1ncn2[C@@H]1O[C@@H]2COP(=O)(O)O[C@H]2[C@H]1O` [Compound 1-24], in assay [1], the Proliferation is given as 16 CPM and the inhibition at 100 µM amounted to 98%. Further, in assay [2], the inhibition at 0.01 µM came to 0%, 0.1 µM produced 27% inhibition, 1 µM produced 78% inhibition and the inhibition at 10 µM worked out at 97%. The same molecule came in with an inhibition at 100 µM in assay [2] of 100%. Besides, the “Inhibitory capacity on two-way MLR, in words” value in assay [2] (two-way MLR) is “significant inhibitory capacity”.

Take `CCCN(CCC)c1ncnc2c1ncn2[C@@H]1O[C@H](CO)[C@@H](O)[C@H]1O` [Compound 1-46]: in assay [2], the inhibition at 1 µM was 12%, the inhibition at 10 µM is 83% and the inhibition at 100 µM was determined as 98%.

`C=CC[C@@H]1/C=C(\C)C[C@H](C)C[C@H](OC)[C@H]2O[C@@](O)(C(=O)C(=O)N3CCCC[C@H]3C(=O)O[C@H](/C(C)=C/[C@@H]3CC[C@@H](O)[C@H](OC)C3)[C@H](C)[C@@H](O)CC1=O)[C@H](C)C[C@@H]2OC` [Fk506, reference compound]: the “% Inhibition of IL-2 production” value came out at 100% in the assay with IL-2 (24 hours), 97% in the assay with IL-2 (48 hours), 91% in the assay on IL-2 (72 hours) and 0% in the assay with IL-2 (96 hours). Besides, the IL-2 production is reported as 0.7 pg/mL in the assay on IL-2 (24 hours), 16 pg/mL in the assay with IL-2 (48 hours), 16 pg/mL in the assay with IL-2 (72 hours) and 23 pg/mL in the assay with IL-2 (96 hours). Also, the “% Inhibition of IL-10 production” value is given as 69% in the assay with IL-10 (24 hours), 77% with IL-10 (48 hours), 61% with IL-10 (72 hours) and 76% in the assay on IL-10 (96 hours). In addition, the IL-10 production amounted to 173 pg/mL with IL-10 (24 hours), 235 pg/mL with IL-10 (48 hours), 228 pg/mL in the assay with IL-10 (72 hours) and 200 pg/mL in the assay on IL-10 (96 hours). Also, the “% Inhibition of IFN-γ production” value in the assay with Interferon-gamma (24 hours) was determined as 100%; with Interferon-gamma (48 hours), 98%; in the assay with Interferon-gamma (72 hours) it was 92%; in the assay with Interferon-gamma (96 hours), 96%. For the same molecule, the IFN-γ production in the assay on Interferon-gamma (24 hours) is given as 0 pg/mL; in the assay on Interferon-gamma (48 hours), 155 pg/mL; in the assay with Interferon-gamma (72 hours), 232 pg/mL; in the assay with Interferon-gamma (96 hours) it was 225 pg/mL. Moreover, the “% Inhibition of IL-4 production” value is given as 98% with IL-4 (24 hours), 99% in the assay with IL-4 (48 hours), 99% in the assay on IL-4 (72 hours) and 93% with IL-4 (96 hours). In addition, the IL-4 production with IL-4 (24 hours) is 18 pg/mL; in the assay on IL-4 (48 hours), 17 pg/mL; with IL-4 (72 hours), 10 pg/mL; in the assay with IL-4 (96 hours), 10 pg/mL.

Regarding `C=C[C@@]1(C)CC(=O)[C@]2(O)[C@@]3(C)[C@@H](O)CCC(C)(C)[C@@H]3[C@H](O)[C@H](OC(C)=O)[C@@]2(C)O1` [Forskolin, reference compound], in assay [1], the Proliferation came to 476 CPM and the inhibition at 100 µM was 55%. In assay [2], this molecule had an inhibition at 0.01 µM of 20%, an inhibition at 0.1 µM of 28%, an inhibition at 1 µM of 31% and an inhibition at 10 µM of 55%. Moreover, the inhibition at 100 µM in assay [2] was 60%.

For `CCN(CC)c1ncnc2c1ncn2[C@@H]1O[C@H](CO)[C@@H](O)[C@H]1O` [Compound 1-50], in assay [2], at 1 µM the inhibition was 13%, the inhibition at 10 µM was 45% and the inhibition at 100 µM worked out at 88%.

As to `CCCN(CCC)c1ncnc2c1ncn2[C@@H]1O[C@@H]2COP(=O)(O)O[C@H]2[C@H]1OS(=O)(=O)c1ccc(C)cc1` [Compound 1-15, N^6,N^6-di-n-Propyl-2'-O-tosyl-c-AMP], in assay [2], the inhibition at 0.01 µM was 0%, the inhibition at 0.1 µM was 6%, testing at 1 µM gave an inhibition of 9% and the inhibition at 10 µM was found to be 25%. This molecule had an inhibition at 100 µM in assay [2] of 99.4%.

In assay [2], `CCCNc1ncnc2c1ncn2[C@@H]1O[C@@H]2COP(=O)(O)O[C@H]2[C@H]1O` [Compound 1-16] yielded an inhibition at 0.01 µM of 0%, an inhibition at 0.1 µM of 2.2%, an inhibition at 1 µM of 12.5% and an inhibition at 10 µM of 90.7%. In assay [2], this molecule had an inhibition at 100 µM of 99.8%.

Take `CCCN(CCC)c1ncnc2c1nc(SCc1ccccc1)n2[C@@H]1O[C@@H]2COP(=O)(O)O[C@H]2[C@H]1O` [Compound 1-42]: in assay [2], at 1 µM the inhibition was 0%, 10 µM produced 31% inhibition and the inhibition at 100 µM stood at 89%.

For `CCCCN(CCCC)c1ncnc2c1ncn2[C@@H]1O[C@@H]2COP(=O)(O)O[C@H]2[C@H]1OS(=O)(=O)c1ccc(C)cc1` [Compound 1-22], in assay [2], at 0.01 µM the inhibition was 0%, testing at 0.1 µM gave an inhibition of 7%, the inhibition at 1 µM came out at 4% and the inhibition at 10 µM amounted to 0%. Further, in assay [2], the inhibition at 100 µM stood at 99%.

For `CCCC(=O)Nc1ncnc2c1ncn2[C@@H]1O[C@@H]2COP(=O)(O)O[C@H]2[C@H]1OC(=O)CCC` [dbcAMP, reference compound], in assay [1], the Proliferation is recorded as 645 CPM and the inhibition at 100 µM amounted to 38%.

Consider `Cc1ccc(S(=O)(=O)O[C@@H]2[C@@H]3OP(=O)(O)OC[C@H]3O[C@H]2n2cnc3c(N)ncnc32)cc1` [Compound 1-5, 2'-O-Tosyl-c-AMP], for which, in assay [2], at 0.01 µM the inhibition was 0%, the inhibition at 0.1 µM was 16%, the inhibition at 1 µM was found to be 25% and testing at 10 µM gave an inhibition of 24%. The inhibition at 100 µM in assay [2] turned out to be 58%.
